Measurements from patent US20180244611A1, “Modulators of the Cystic Fibrosis Transmembrane Conductance Regulator Protein and Methods of Use” (AbbVie S.à.r.l., priority 2017, published 2018).

Key:
F508delCFTR [1] = biological target: T1, F508delCFTR (Homo sapiens, UniProt P13569, DEL508-508); assay: Cell Surface Expression-Horse Radish Peroxidase (CSE-HRP) assay, test compound without co-corrector; format: cell-based; settings: for EC50: test compound without co-corrector; for Emax: maximum at any tested concentration, without co-corrector;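 for Emax: percent of on-plate 2 µM positive control corrector response over DMSO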
T1 construct: expressed in transfected cells; host or cells: CFBE41o- human lung-derived epithelial cells (CFBE41o-F508delCFTR-HRP), doxycycline-inducible
T1 sequence (P13569 with tags, fused parts or gaps DEL508-508): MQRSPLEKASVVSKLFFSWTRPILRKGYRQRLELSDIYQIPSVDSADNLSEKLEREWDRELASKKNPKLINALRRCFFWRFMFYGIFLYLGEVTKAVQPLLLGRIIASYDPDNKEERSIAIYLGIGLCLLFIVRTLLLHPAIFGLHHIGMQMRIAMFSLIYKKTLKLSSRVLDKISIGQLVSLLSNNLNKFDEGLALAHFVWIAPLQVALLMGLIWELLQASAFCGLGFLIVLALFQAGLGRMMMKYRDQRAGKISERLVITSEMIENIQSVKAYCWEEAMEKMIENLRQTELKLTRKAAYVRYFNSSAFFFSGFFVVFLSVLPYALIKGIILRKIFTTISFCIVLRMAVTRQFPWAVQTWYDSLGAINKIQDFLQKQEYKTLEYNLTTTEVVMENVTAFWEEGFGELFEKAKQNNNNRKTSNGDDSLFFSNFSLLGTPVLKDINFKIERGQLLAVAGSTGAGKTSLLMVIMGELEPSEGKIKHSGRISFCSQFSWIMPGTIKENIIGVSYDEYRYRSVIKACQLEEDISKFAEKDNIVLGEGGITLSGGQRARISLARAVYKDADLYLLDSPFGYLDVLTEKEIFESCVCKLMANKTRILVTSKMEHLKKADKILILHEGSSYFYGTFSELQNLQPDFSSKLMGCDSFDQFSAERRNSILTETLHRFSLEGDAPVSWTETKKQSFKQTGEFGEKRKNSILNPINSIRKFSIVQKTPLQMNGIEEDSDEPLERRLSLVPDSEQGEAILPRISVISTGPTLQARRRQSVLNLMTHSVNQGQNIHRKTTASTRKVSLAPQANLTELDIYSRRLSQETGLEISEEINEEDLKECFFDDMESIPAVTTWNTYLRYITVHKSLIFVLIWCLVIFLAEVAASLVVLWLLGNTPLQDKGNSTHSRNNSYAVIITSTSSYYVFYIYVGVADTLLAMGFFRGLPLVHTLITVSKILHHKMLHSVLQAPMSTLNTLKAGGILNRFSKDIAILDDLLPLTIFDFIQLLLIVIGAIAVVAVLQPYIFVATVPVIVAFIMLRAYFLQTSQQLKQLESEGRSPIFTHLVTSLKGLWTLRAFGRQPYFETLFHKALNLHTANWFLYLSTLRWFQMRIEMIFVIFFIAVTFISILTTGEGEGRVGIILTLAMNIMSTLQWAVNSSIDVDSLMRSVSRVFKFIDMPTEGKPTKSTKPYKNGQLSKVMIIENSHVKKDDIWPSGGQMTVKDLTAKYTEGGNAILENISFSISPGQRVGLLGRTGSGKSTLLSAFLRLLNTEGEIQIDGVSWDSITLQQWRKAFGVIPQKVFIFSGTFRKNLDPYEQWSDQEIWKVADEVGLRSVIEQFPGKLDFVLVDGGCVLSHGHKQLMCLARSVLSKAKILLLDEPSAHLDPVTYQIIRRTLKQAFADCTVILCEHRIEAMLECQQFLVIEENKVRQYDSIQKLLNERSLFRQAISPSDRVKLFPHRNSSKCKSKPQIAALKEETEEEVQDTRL
How it was run: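 Compound without co-corrector was tested at eight 3-fold concentrations, top 20 μM, for 18-24 h at 33° C on doxycycline-induced (0.5 μg/mL, 72 h) CFBE41o- F508delCFTR-HRP cells. After DPBS washes, luminol luminescence gave % activity relative to on-plate positive control minus DMSO; EC50 came from triplicate-plate sigmoidal fitting.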

F508delCFTR [2] = biological target: T1, F508delCFTR; assay: Cell Surface Expression-Horse Radish Peroxidase (CSE-HRP) assay, test compound with co-corrector; format: cell-based; settings: for Maximum % activity (with co-corrector): maximum at any tested concentration;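 for Maximum % activity (with co-corrector): percent of 2 µM positive control corrector over DMSO; co-corrector is that same compound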
How it was run: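 Surface-expression read-out: luminol luminescence from an HRP tag in the fourth exofacial loop of F508delCFTR, in doxycycline-induced (0.5 μg/mL, 72 h) CFBE41o- cells. Compound plus 2 μM co-corrector added for 18-24 h at 33° C., 8-point 3-fold series up to 20 μM. EC50 from a sigmoidal fit with variable Hill slope, normalised to positive control, triplicate plates.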

[3] = normalized to on-plate positive control
[4] = CSE-HRP assay, test compound with 2 μM co-corrector
[5] = normalized to on-plate positive control, with 2 μM co-corrector
[6] = normalized to positive control, with 2 μM co-corrector

Row | Compound | EC50 (F508delCFTR [1]; CSE-HRP assay) [µM] | Emax (F508delCFTR [1]; [3]) [%] | EC50 (F508delCFTR [2]; [4]) [µM] | Maximum % activity (with co-corrector) (F508delCFTR [2]; [5]) | Emax (F508delCFTR [1]; normalized to positive control) [%] | EC50 (F508delCFTR [1]) [µM] | Maximum % activity (with co-corrector) (F508delCFTR [2]; [6]) | EC50 (F508delCFTR [2]; with 2 μM co-corrector) [µM]
1 | N#CC1(C(=O)NS(=O)(=O)c2cccc3ccccc23)CCCc2cccc(Cl)c21 (stereo not shown) [Example III-157, 8-chloro-1-cyano-N-(naphthalene-1-sulfonyl)-1,2,3,4-tetrahydronaphthalene-1-carboxamide] | ≥ 10 | < 50 | 3 to 10 | ++ (≥150 and <350) | – | – | – | –
2 | CCC1(C(=O)NS(=O)(=O)c2cccc(C3CCC3)c2C)CCc2c(Cl)cccc21 (stereo not shown) [II-112] | – | – | – | – | < 50 | 3 to 10 | ++ (≥150 and <350) | < 3
3 | COc1cccc2c1CCC2C(=O)NS(=O)(=O)c1ccc2oc(=O)ccc2c1 (stereo not shown) [III-47] | – | – | – | – | < 50 | ≥ 10 | + (<150) | ≥ 10
4 | COc1cccc2c1CC(C(=O)NS(=O)(=O)c1ccccc1C)CC2 (stereo not shown) [III-7] | – | – | – | – | < 50 | ≥ 10 | ++ (≥150 and <350) | 3 to 10
5 | COc1ccc(Br)c2c1C(C(=O)NS(=O)(=O)c1cccc3ccccc13)CCC2 (stereo not shown) [Example I-41, 5-bromo-8-methoxy-N-(naphthalene-1-sulfonyl)-1,2,3,4-tetrahydronaphthalene-1-carboxamide] | – | – | – | – | ≥ 150 | < 3 | +++ (≥350) | < 3
6 | C=C(C)c1ccc(OC)c2c1CCC2C(=O)NS(=O)(=O)c1cccc2ccccc12 (stereo not shown) [Example I-124, 7-methoxy-N-(naphthalene-1-sulfonyl)-4-(prop-1-en-2-yl)-2,3-dihydro-1H-indene-1-carboxamide] | – | – | – | – | ≥ 150 | < 3 | +++ (≥350) | < 3
7 | COc1cc2c(cc1OC)C(C(=O)NS(=O)(=O)c1ccccc1C)CCC2 (stereo not shown) [II-15] | – | – | – | – | < 50 | ≥ 10 | + (<150) | 3 to 10
8 | CCC1(C(=O)NS(=O)(=O)c2cccc3cnn(C)c23)CCc2c(Cl)cccc21 (stereo not shown) [Example I-97, 4-chloro-1-ethyl-N-(1-methyl-1H-indazole-7-sulfonyl)-2,3-dihydro-1H-indene-1-carboxamide] | – | – | – | – | ≥ 150 | < 3 | +++ (≥350) | < 3
9 | COc1cccc2c1CCC2C(=O)NS(=O)(=O)c1cccc(Cl)c1F (stereo not shown) [III-70] | – | – | – | – | < 50 | ≥ 10 | + (<150) | ≥ 10
10 | COc1ccc(C2CCC2)c2c1C(C(=O)NS(=O)(=O)c1cccc3ncn(C)c13)CC2 (stereo not shown) [Example I-133, 4-cyclobutyl-7-methoxy-N-(1-methyl-1H-benzimidazole-7-sulfonyl)-2,3-dihydro-1H-indene-1-carboxamide] | – | – | – | – | ≥ 150 | < 3 | +++ (≥350) | < 3
11 | COc1ccc(Br)c2c1C(C(=O)NS(=O)(=O)c1cccnc1OC)CC2 (stereo not shown) [III-158] | 3 to 10 | 50 to 150 | 3 to 10 | ++ (≥150 and <350) | – | – | – | –
12 | O=C(NS(=O)(=O)c1cccc2ccccc12)C1CCCc2c1ccc1c2OCCO1 (stereo not shown) [II-52] | – | – | – | – | 50 to 150 | 3 to 10 | +++ (≥350) | 3 to 10
13 | COc1ccc(Br)c2c1[C@H](C(=O)NS(=O)(=O)c1cccc3ncccc13)CC2 [Example I-47, (1R)-4-bromo-7-methoxy-N-(quinoline-5-sulfonyl)-2,3-dihydro-1H-indene-1-carboxamide] | – | – | – | – | ≥ 150 | < 3 | +++ (≥350) | < 3
14 | CCC1(C(=O)NS(=O)(=O)c2ccccc2OC(F)F)CCc2c(Cl)cccc21 (stereo not shown) [II-61] | – | – | – | – | < 50 | ≥ 10 | + (<150) | ≥ 10
15 | COc1ccc(N2CCOCC2)c2c1CCCC2C(=O)NS(=O)(=O)c1cccc2ccccc12 (stereo not shown) [III-153] | ≥ 10 | < 50 | ≥ 10 | + (<150) | – | – | – | –
16 | CCC1(C(=O)NS(=O)(=O)c2cccc(Cl)c2)CCc2c(Cl)cccc21 (stereo not shown) [III-117] | 3 to 10 | < 50 | < 3 | ++ (≥150 and <350) | – | – | – | –
17 | O=C(NS(=O)(=O)c1ccccc1F)C1CCc2c(Cl)cccc21 (stereo not shown) [II-28] | – | – | – | – | < 50 | 3 to 10 | ++ (≥150 and <350) | 3 to 10
18 | COc1cccc2c1C(C(=O)NS(=O)(=O)c1cccc3ccccc13)CC2(C)C (stereo not shown) [Example I-149, 7-methoxy-3,3-dimethyl-N-(naphthalene-1-sulfonyl)-2,3-dihydro-1H-indene-1-carboxamide] | – | – | – | – | ≥ 150 | < 3 | +++ (≥350) | < 3
19 | COc1cccc2c1CCC2C(=O)NS(=O)(=O)c1cccc([N+](=O)[O-])c1 (stereo not shown) [III-27] | – | – | – | – | < 50 | ≥ 10 | + (<150) | ≥ 10
20 | CCC1(C(=O)NS(=O)(=O)c2cccc3ccccc23)CCCc2c(OC)cccc21 (stereo not shown) [Example I-10, 1-ethyl-5-methoxy-N-(naphthalene-1-sulfonyl)-1,2,3,4-tetrahydronaphthalene-1-carboxamide] | – | – | – | – | ≥ 150 | 3 to 10 | +++ (≥350) | < 3
21 | CCC1(C(=O)NS(=O)(=O)c2ccccc2F)CCc2c(Cl)cccc21 (stereo not shown) [II-58] | – | – | – | – | < 50 | < 3 | ++ (≥150 and <350) | < 3
22 | COc1ccc2c(c1OC)CC2C(=O)NS(=O)(=O)c1cccc2ccccc12 (stereo not shown) [III-177] | ≥ 10 | < 50 | 3 to 10 | ++ (≥150 and <350) | – | – | – | –
23 | COc1ccc(C2CCC2)c2c1C(C(=O)NS(=O)(=O)c1cccc3ccccc13)C2 (stereo not shown) [Example I-102, 2-cyclobutyl-5-methoxy-N-(naphthalene-1-sulfonyl)bicyclo[4.2.0]octa-1,3,5-triene-7-carboxamide] | – | – | – | – | ≥ 150 | < 3 | +++ (≥350) | < 3
24 | COc1ccc(Br)c2c1C(C(=O)NS(=O)(=O)c1ccc(OC)c3ccccc13)CC2 (stereo not shown) [III-162] | 3 to 10 | 50 to 150 | 3 to 10 | +++ (≥350) | – | – | – | –
25 | COc1ncc(Cl)c2c1C(C(=O)NS(=O)(=O)c1cccc3ccccc13)CC2 (stereo not shown) [Example I-112, 4-chloro-1-methoxy-N-(naphthalene-1-sulfonyl)-6,7-dihydro-5H-cyclopenta[c]pyridine-7-carboxamide] | – | – | – | – | ≥ 150 | 3 to 10 | +++ (≥350) | 3 to 10
26 | CCC1(C(=O)NS(=O)(=O)c2cccc3c2OC(F)(F)O3)CCc2c(Cl)cccc21 (stereo not shown) [Example I-13, 4-chloro-N-(2,2-difluoro-2H-1,3-benzodioxole-4-sulfonyl)-1-ethyl-2,3-dihydro-1H-indene-1-carboxamide] | – | – | – | – | < 50 | ≥ 10 | ++ (≥150 and <350) | < 3
27 | CCC1(C(=O)NS(=O)(=O)c2ccccc2Oc2ccccc2)CCc2c(Cl)cccc21 (stereo not shown) [II-59] | – | – | – | – | < 50 | < 3 | ++ (≥150 and <350) | < 3
28 | O=C(NS(=O)(=O)c1cccc2ccccc12)C1(CO)CCc2c(Cl)cccc21 (stereo not shown) [Example II-81, 4-chloro-1-(hydroxymethyl)-N-(naphthalene-1-sulfonyl)-2,3-dihydro-1H-indene-1-carboxamide] | – | – | – | – | 50 to 150 | 3 to 10 | +++ (≥350) | < 3
